From patent US20250360235A1, “RADI[…] AND METHOD FOR RADIOLABELLING” (Telix Innovations SA, priority 2024, published 2025)

Experiment: pH of [68Ga]PSMA-11 solution (acceptance 4.0-5.0)
Format: physicochemical
Conditions: for pH of the gallium-68 labelled PSMA-11 solution: immediately after the radiolabelling procedure
Description: (§1) 100 μl of the ascorbic acid solution (equivalent to 25 mg ascorbic acid) was taken from vial 3, and was filtered through a 5 μm filter needle. The sodium ascorbate solution was subsequently added to vail 2, and mixed thoroughly. The obtained content of vial 2 was added to vial 1, and again mixed thoroughly. To this obtained vail 1, the eluate, comprising the gallium-68, was added to obtain a gallium-68 labelled PSMA-11 solution. Optionally, a 2.5 ml 0.9% sodium chloride solution may be added to increase the volume and/or to amend the osmolality to be under 1000 mOsm/kg.
The pH of the gallium-68 labelled PSMA-11 solution was 4.5 immediately after the radiolabelling procedure and was unchanged after 4 hours.
as §1, with “a Gallium-68” for “a gallium-68”, “a” for “a 2.5 ml 0.9%”, “volume of the obtained Gallium-68 labelled PSMA-11 solution” for “volume”, “mOsm/kg. The pH of the gallium-68 labelled PSMA-11 solution was 4.5 immediately after the radiolabelling procedure and was unchanged after 4 hours.” for “mOsm/kg.”
as §1, with “a Gallium-68” for “a gallium-68”, “a” for “a 2.5 ml 0.9%”, “volume of the obtained Gallium-68 labelled PSMA-11 solution” for “volume”, “mOsm/kg. The pH of the gallium-68 labelled PSMA-11 solution was 4.5 immediately after the radiolabelling procedure and was unchanged after 6 hours.” for “mOsm/kg.”
Table 1 to Table 5 show the results of various radiolabelling experiments on radiochemical purity and the chelation yield. The radiolabelling experiments in the tables are carried out as described in: • Example 1 for when the gallium-68 source is GE Liquid target generator and EZAG GalliaPharm generator; • Example 2 for when the gallium-68 source is IRE Galli Eo generator; • Example 3 for when the gallium-68 source is GE solid target generator;
However, the experiments were carried out with the amount of ascorbic acid as indicated in the Tables 1 to 5, and the activity as indicated in the Tables 1 to 5. Radiochemical purities were measured at various times (T0, T1, T4, T6) after the radiolabelled experiments have been conducted.
The kits of Example 1, Example 2 or Example 3, with amounts of ascorbic acid as set out in Table 7 were used in the experiments for the ascorbic acid bracketing matrix. Three strengths of [^68Ga]Ga-PSMA-11 will be tested, i.e. 50 mCi/ml, 7 mCi/ml and 1 mCi/ml. Radiochemical purity was determined at different time points (TO, T1, T4 or T6), as set out in Table 7.

For `O=C([O-])CN(CCN(CC(=O)[O-])Cc1cc(CCC(=O)NCCCCCC(=O)NCCCC[C@H](NC(=O)N[C@@H](CCC(=O)O)C(=O)O)C(=O)O)ccc1[O-])Cc1cc(CCC(=O)O)ccc1[O-].[68Ga+3].[OH3+]` [[^68Ga]PSMA-11, gallium-68 radiolabelled Glu-urea-Lys-HBED-CC (gozetotide or PSMA-11)], the pH (1 mg ascorbic acid, 58.7-71.1 mCi, 7.47-8.99 mCi/mL, GE Liquid target, n=3, T0) was “C (C = conforms to specifications)”, the pH (1 mg ascorbic acid, 58.7-71.1 mCi, 7.47-8.99 mCi/mL, GE Liquid target, n=3, T4 (4 h)) was “C (C = conforms to specifications)” and the pH (2.5 mg ascorbic acid, 49.9-76.9 mCi, 6.31-9.72 mCi/mL, GE Liquid target, n=3, T0) was “C (C = conforms to specifications)”. The pH (2.5 mg ascorbic acid, 49.9-76.9 mCi, 6.31-9.72 mCi/mL, GE Liquid target, n=3, T4 (4 h)) was “C (C = conforms to specifications)”, the pH (5 mg ascorbic acid, 60-69.9 mCi, 7.61-8.81 mCi/mL, 3 × GE Liquid Target, 3 × EZAG GalliaPharm, n=6, T0) was “C (C = conforms to specifications)” and the pH (5 mg ascorbic acid, 60-69.9 mCi, 7.61-8.81 mCi/mL, 3 × GE Liquid Target, 3 × EZAG GalliaPharm, n=6, T4 (4 h)) was “C (C = conforms to specifications)”. The pH (10 mg ascorbic acid, 458-500 mCi, 43.4-47.3 mCi/mL, GE Solid Target, n=3, T0) was “C (C = conforms to specifications)”, the pH (10 mg ascorbic acid, 458-500 mCi, 43.4-47.3 mCi/mL, GE Solid Target, n=3, T4 (4 h)) was “C (C = conforms to specifications)” and the pH (10 mg ascorbic acid, 514-520 mCi, 49.0-66.1 mCi/mL, GE Solid Target, n=3, T0) was “C (C = conforms to specifications)”. For the same molecule, the pH (10 mg ascorbic acid, 514-520 mCi, 49.0-66.1 mCi/mL, GE Solid Target, n=3, T6 (6 h)) was “C (C = conforms to specifications)”, the pH (15 mg ascorbic acid, 10.0-18.4 mCi, 0.95-1.77 mCi/mL, 1 × EZAG GalliaPharm, 2 × IRE Galli Eo, n=3, T0) was “C (C = conforms to specifications)” and the pH (15 mg ascorbic acid, 10.0-18.4 mCi, 0.95-1.77 mCi/mL, 1 × EZAG GalliaPharm, 2 × IRE Galli Eo, n=3, T1 (1 h)) was “C (C = conforms to specifications)”. The pH (15 mg ascorbic acid, 23.7-47.6 mCi, 2.26-4.53 mCi/mL, 1 × EZAG GalliaPharm, 2 × IRE Galli Eo, n=3, T0) was “C (C = conforms to specifications)”, the pH (15 mg ascorbic acid, 23.7-47.6 mCi, 2.26-4.53 mCi/mL, 1 × EZAG GalliaPharm, 2 × IRE Galli Eo, n=3, T4 (4 h)) was “C (C = conforms to specifications)” and the pH (20 mg ascorbic acid, 514-544 mCi, 48.3-51.9 mCi/mL, GE Solid Target, n=2, T0) was “C (C = conforms to specifications)”. The pH (20 mg ascorbic acid, 514-544 mCi, 48.3-51.9 mCi/mL, GE Solid Target, n=2, T6 (6 h)) was “C (C = conforms to specifications)”, the pH (25 mg ascorbic acid, 10.2 mCi, 0.97 mCi/mL, IRE Galli Eo, n=1, T0) was “C (C = all results conform to specifications)” and the pH (25 mg ascorbic acid, 10.2 mCi, 0.97 mCi/mL, IRE Galli Eo, n=1, T1 (1 h)) was “C (C = all results conform to specifications)”. For the same molecule, the pH (25 mg ascorbic acid, 19.5-20.0 mCi, 1.85-1.90 mCi/mL, EZAG GalliaPharm, n=2, T0) was “C (C = all results conform to specifications)”, the pH (25 mg ascorbic acid, 19.5-20.0 mCi, 1.85-1.90 mCi/mL, EZAG GalliaPharm, n=2, T1 (1 h)) was “C (C = all results conform to specifications)” and the pH (25 mg ascorbic acid, 23.3-24 mCi, 2.22-2.28 mCi/mL, IRE Galli Eo, n=2, T0) was “C (C = all results conform to specifications)”. For the same molecule, the pH (25 mg ascorbic acid, 23.3-24 mCi, 2.22-2.28 mCi/mL, IRE Galli Eo, n=2, T4 (4 h)) was “C (C = all results conform to specifications)”, the pH (25 mg ascorbic acid, 46.0-46.1 mCi, 4.38-4.39 mCi/mL, EZAG GalliaPharm, n=2, T0) was “C (C = all results conform to specifications)” and the pH (25 mg ascorbic acid, 46.0-46.1 mCi, 4.38-4.39 mCi/mL, EZAG GalliaPharm, n=2, T4 (4 h)) was “C (C = all results conform to specifications)”. The pH (50 mg ascorbic acid, 560 mCi, 71.1 mCi/mL, GE Solid Target, n=1, T0) was “C (C = conforms to specifications)”, the pH (50 mg ascorbic acid, 560 mCi, 71.1 mCi/mL, GE Solid Target, n=1, T6 (6 h)) was “C (C = conforms to specifications)” and the “pH of the gallium-68 labelled PSMA-11 solution” value (Example 1 kit (25 mg ascorbic acid; EZAG GalliaPharm or GE Liquid, 60-70 mCi)) was 4.5. The “pH of the gallium-68 labelled PSMA-11 solution, change” value (shortened to “pH … change”) (Example 1 kit, after 4 hours) was “unchanged”, the “pH of the gallium-68 labelled PSMA-11 solution” value (Example 2 kit (25 mg ascorbic acid; IRE Galli Eo, 60-70 mCi)) was 4.5 and the “pH … change” value (Example 2 kit, after 4 hours) was “unchanged”. The “pH of the gallium-68 labelled PSMA-11 solution” value (Example 3 kit (25 mg ascorbic acid; solid target, 350-600 mCi)) was 4.5, the “pH … change” value (Example 3 kit, after 6 hours) was “unchanged” and the pH (bracketing ~1 mCi/mL, 18.75 mg ascorbic acid, 8.9-11.5 mCi, 0.85-1.09 mCi/mL, IRE Galli Eo, n=2, T0) was “C (C = Conforms to specifications)”. For the same molecule, the pH (bracketing ~1 mCi/mL, 18.75 mg ascorbic acid, 8.9-11.5 mCi, 0.85-1.09 mCi/mL, IRE Galli Eo, n=2, T1 (1 h)) was “C (C = Conforms to specifications)”, the pH (bracketing ~1 mCi/mL, 25 mg ascorbic acid, 8.8-12.7 mCi, 0.84-1.21 mCi/mL, 2 × IRE Galli Eo, n=2, T0) was “C (C = Conforms to specifications)” and the pH (bracketing ~1 mCi/mL, 25 mg ascorbic acid, 8.8-12.7 mCi, 0.84-1.21 mCi/mL, 2 × IRE Galli Eo, n=2, T1 (1 h)) was “C (C = Conforms to specifications)”. For the same molecule, the pH (bracketing ~1 mCi/mL, 31.25 mg ascorbic acid, 15.2-26.9 mCi, 1.44-2.54 mCi/mL, EZAG GalliaPharm, n=2, T0) was “C (C = Conforms to specifications)”, the pH (bracketing ~1 mCi/mL, 31.25 mg ascorbic acid, 15.2-26.9 mCi, 1.44-2.54 mCi/mL, EZAG GalliaPharm, n=2, T1 (1 h)) was “C (C = Conforms to specifications)” and the pH (bracketing ~7 mCi/mL, 18.75 mg ascorbic acid, 51.0-58.0 mCi, 5.55-6.5 mCi/mL, IRE Galli Eo, n=2, T0) was “C (C = Conforms to specifications)”. For the same molecule, the pH (bracketing ~7 mCi/mL, 18.75 mg ascorbic acid, 51.0-58.0 mCi, 5.55-6.5 mCi/mL, IRE Galli Eo, n=2, T4 (4 h)) was “C (C = Conforms to specifications)”, the pH (bracketing ~7 mCi/mL, 25 mg ascorbic acid, 51.6-74.4 mCi, 4.56-6.92 mCi/mL, 3 × GE Liquid Target, 3 × IRE Galli Eo, 3 × EZAG GalliaPharm, n=9, T0) was “C (C = Conforms to specifications)” and the pH (bracketing ~7 mCi/mL, 25 mg ascorbic acid, 51.6-74.4 mCi, 4.56-6.92 mCi/mL, 3 × GE Liquid Target, 3 × IRE Galli Eo, 3 × EZAG GalliaPharm, n=9, T4 (4 h)) was “C (C = Conforms to specifications)”. For the same molecule, the pH (bracketing ~7 mCi/mL, 31.25 mg ascorbic acid, 61.5-62.0 mCi, 5.85-5.88 mCi/mL, EZAG GalliaPharm, n=2, T0) was “C (C = Conforms to specifications)”.
